pIC50: −log10 of the molar value.
Tests used:
[1] = molecular target: T1, recombinant human KDM5B (Homo sapiens, UniProt Q9UGL1); assay: 14CO2 capture enzymatic assay (decarboxylation of [1-14C] αKG), KDM5B; assay type: biochemical; conditions: 10 μM [1-14C] αKG, 90 μM non-labeled αKG, 50 μM peptide substrate, 37° C., 1 hour, final 1% DMSO
T1 sequence (Q9UGL1 374-755 limits assumed): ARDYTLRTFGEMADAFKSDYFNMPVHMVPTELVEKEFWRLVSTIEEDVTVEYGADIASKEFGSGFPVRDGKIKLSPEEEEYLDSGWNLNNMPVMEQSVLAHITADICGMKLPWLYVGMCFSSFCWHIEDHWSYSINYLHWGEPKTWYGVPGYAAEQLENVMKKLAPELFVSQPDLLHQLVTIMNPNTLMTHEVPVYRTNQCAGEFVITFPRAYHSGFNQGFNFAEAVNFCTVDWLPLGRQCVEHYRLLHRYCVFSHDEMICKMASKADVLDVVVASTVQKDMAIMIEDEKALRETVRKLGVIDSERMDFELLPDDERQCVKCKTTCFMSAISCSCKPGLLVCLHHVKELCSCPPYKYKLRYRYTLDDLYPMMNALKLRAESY
Outline: (§1)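 Truncated recombinant human KDM5B (H3K4me3 peptide) or KDM4A (H3K9me3 peptide), 50 μM peptide, with 10 μM [1-14C]αKG plus 90 μM unlabeled αKG, 10 μM Fe(SO4), 2 mM ascorbate in pH 7.4 HEPES, 1 h at 37 °C, 1% DMSO. Released 14CO2 trapped on Ba(OH)2 filter; IC50 by non-linear fit.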

[2] = molecular target: T2, recombinant human KDM4A (Homo sapiens, UniProt O75164); assay: 14CO2 capture enzymatic assay (decarboxylation of [1-14C] αKG), KDM4A; assay type: biochemical; conditions: 10 μM [1-14C] αKG, 90 μM non-labeled αKG, 50 μM peptide substrate, 37° C., 1 hour, final 1% DMSO
T2 construct: made in house
T2 sequence (O75164 1-359 limits assumed): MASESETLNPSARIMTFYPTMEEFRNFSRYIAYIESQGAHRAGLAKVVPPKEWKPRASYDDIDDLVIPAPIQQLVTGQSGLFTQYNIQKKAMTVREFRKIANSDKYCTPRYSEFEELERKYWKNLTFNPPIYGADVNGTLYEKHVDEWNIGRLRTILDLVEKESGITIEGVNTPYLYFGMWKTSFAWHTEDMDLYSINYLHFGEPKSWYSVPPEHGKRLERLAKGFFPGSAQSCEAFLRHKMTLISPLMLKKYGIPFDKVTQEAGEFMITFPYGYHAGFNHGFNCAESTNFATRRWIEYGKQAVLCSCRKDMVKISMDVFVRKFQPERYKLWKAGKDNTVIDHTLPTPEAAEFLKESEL
Outline: as §1

| SMILES | pIC50 [1] | pIC50 [2] |
| --- | --- | --- |
| Cc1cccc(C)c1Cc1cc(C#N)c(O)c(C(=O)CCC(=O)O)c1 [Example 122, 4-[3-Cyano-5-(2,6-dimethyl-benzyl)-2-hydroxy-phenyl]-4-oxo-butyric acid] | 6.64 | < 4.40 |
| COc1cccc(Cl)c1Cc1cc(C#N)c(O)c(C(=O)CCC(=O)O)n1 [Example 125, 4-[6-(2-Chloro-6-methoxy-benzyl)-4-cyano-3-hydroxy-pyridin-2-yl]-4-oxo-butyric acid] | 7.10 | 4.89 |
| Cc1cc(Cl)c(Cc2cc(C#N)c(O)c(C(=O)CCC(=O)O)n2)c(Cl)c1 [Example 127, 4-[4-Cyano-6-(2,6-dichloro-4-methyl-benzyl)-3-hydroxy-pyridin-2-yl]-4-oxo-butyric acid] | 7.22 | < 4.40 |
| N#Cc1cc(NC(=O)c2c(Cl)cccc2Cl)nc(C(=O)CCC(=O)O)c1O [Example 128, 4-[4-Cyano-6-(2,6-dichloro-benzoylamino)-3-hydroxy-pyridin-2-yl]-4-oxo-butyric acid] | 6.42 | < 4.40 |
| Cc1cccc(C)c1C(=O)Nc1cc(C#N)c(O)c(C(=O)CCC(=O)O)n1 [Example 129, 4-[4-Cyano-6-(2,6-dimethyl-benzoylamino)-3-hydroxy-pyridin-2-yl]-4-oxo-butyric acid] | 6.25 | < 4.40 |
| N#Cc1cc(Cc2c(Cl)cc(Cl)cc2Cl)cc(C(=O)CCC(=O)O)c1O [Example 131, 4-[3-Cyano-2-hydroxy-5-(2,4,6-trichloro-benzyl)-phenyl]-4-oxo-butyric acid] | 7.30 | < 4.40 |
| N#Cc1cc(Oc2ccccc2)cc(C(=O)CCC(=O)O)c1O [Example 132, 4-(3-Cyano-2-hydroxy-5-phenoxy-phenyl)-4-oxo-butyric acid] | 6.51 | < 4.40 |
| N#Cc1cc(Cc2c(Cl)ccc(F)c2Cl)cc(C(=O)CCC(=O)O)c1O [Example 134, 4-[3-Cyano-5-(2,6-dichloro-3-fluoro-benzyl)-2-hydroxy-phenyl]-4-oxo-butyric acid] | 6.92 | < 4.40 |
| N#Cc1cc(CCc2ccccc2)cc(C(=O)CCC(=O)O)c1O [Example 135, 4-(3-Cyano-2-hydroxy-5-phenethyl-phenyl)-4-oxo-butyric acid] | 6.43 | < 4.40 |
| N#Cc1cc(Oc2ccccc2Cl)cc(C(=O)CCC(=O)O)c1O [Example 136, 4-[5-(2-Chloro-phenoxy)-3-cyano-2-hydroxy-phenyl]-4-oxo-butyric acid] | 6.43 | < 4.40 |
| Cc1ccccc1Oc1cc(C#N)c(O)c(C(=O)CCC(=O)O)c1 [Example 140, 4-(3-Cyano-2-hydroxy-5-o-tolyloxy-phenyl)-4-oxo-butyric acid] | 6.48 | < 4.40 |
| N#Cc1cc(Oc2ccc(F)cc2)cc(C(=O)CCC(=O)O)c1O [Example 142, 4-[3-Cyano-5-(4-fluoro-phenoxy)-2-hydroxy-phenyl]-4-oxo-butyric acid] | 6.55 | < 4.40 |
| N#Cc1cc(Cc2c(Cl)cc(OC(F)(F)F)cc2Cl)nc(C(=O)CCC(=O)O)c1O [Example 143, 4-[4-Cyano-6-(2,6-dichloro-4-trifluoromethoxy-benzyl)-3-hydroxy-pyridin-2-yl]-4-oxo-butyric acid] | 6.64 | < 4.40 |
| N#Cc1cc(Cc2c(Cl)cc(C(F)(F)F)cc2Cl)nc(C(=O)CCC(=O)O)c1O [Example 145, 4-[4-Cyano-6-(2,6-dichloro-4-trifluoromethyl-benzyl)-3-hydroxy-pyridin-2-yl]-4-oxo-butyric acid] | 6.44 | < 4.40 |
| COc1cccc(F)c1Cc1cc(C#N)c(O)c(C(=O)CCC(=O)O)n1 [Example 150, 4-[4-Cyano-6-(2-fluoro-6-methoxy-benzyl)-3-hydroxy-pyridin-2-yl]-4-oxo-butyric acid] | 6.55 | 4.57 |

Continued by rising pIC50 [1], values first:

| pIC50 [1] | pIC50 [2] | SMILES |
| --- | --- | --- |
| 5.49 | < 4.40 | Cc1cccc(C)c1C(=O)N(C)c1cc(C#N)c(O)c(C(=O)CCC(=O)O)n1 [Example 130, 4-{4-Cyano-6-[(2,6-dimethyl-benzoyl)-N-methyl-amino]-3-hydroxy-pyridin-2-yl}-4-oxo-butyric acid] |
| 5.85 | < 4.40 | Cc1cccc(C)c1Cc1cc(C(=O)CCC(=O)O)c(O)c(C#N)n1 [Example 133, 4-[2-Cyano-6-(2,6-dimethyl-benzyl)-3-hydroxy-pyridin-4-yl]-4-oxo-butyric acid] |
| 6.09 | < 4.40 | N#Cc1cc(Oc2ccc(Cl)cc2)cc(C(=O)CCC(=O)O)c1O [Example 137, 4-[5-(4-Chloro-phenoxy)-3-cyano-2-hydroxy-phenyl]-4-oxo-butyric acid] |
| 6.25 | < 4.40 | Cc1ccc(Oc2cc(C#N)c(O)c(C(=O)CCC(=O)O)c2)cc1 [Example 139, 4-(3-Cyano-2-hydroxy-5-p-tolyloxy-phenyl)-4-oxo-butyric acid] |
| 6.30 | 5.82 | Cc1cc(F)cc(C)c1Cc1cc(C#N)c(O)c(C(=O)CCC(=O)O)n1 [Example 151, 4-[4-Cyano-6-(4-fluoro-2,6-dimethyl-benzyl)-3-hydroxy-pyridin-2-yl]-4-oxo-butyric acid] |
| 6.35 | 5.01 | Cc1cc(Cl)cc(C)c1Cc1cc(C#N)c(O)c(C(=O)CCC(=O)O)n1 [Example 152, 4-[4-Cyano-6-(4-chloro-2,6-dimethyl-benzyl)-3-hydroxy-pyridin-2-yl]-4-oxo-butyric acid] |
| 6.41 | < 4.40 | N#Cc1cc(Oc2cccc(Cl)c2)cc(C(=O)CCC(=O)O)c1O [Example 138, 4-[5-(3-Chloro-phenoxy)-3-cyano-2-hydroxy-phenyl]-4-oxo-butyric acid] |
| 6.49 | 4.77 | Cc1cc(C#N)cc(C)c1Cc1cc(C#N)c(O)c(C(=O)CCC(=O)O)n1 [Example 153, 4-[4-Cyano-6-(4-cyano-2,6-dimethyl-benzyl)-3-hydroxy-pyridin-2-yl]-4-oxo-butyric acid] |
| 6.52 | 5.37 | Cc1cccc(F)c1Cc1cc(C#N)c(O)c(C(=O)CCC(=O)O)n1 [Example 148, 4-[4-Cyano-6-(2-fluoro-6-methyl-benzyl)-3-hydroxy-pyridin-2-yl]-4-oxo-butyric acid] |
| 6.60 | < 4.40 | COc1ccc(Oc2cc(C#N)c(O)c(C(=O)CCC(=O)O)c2)cc1 [Example 141, 4-[3-Cyano-2-hydroxy-5-(4-methoxy-phenoxy)-phenyl]-4-oxo-butyric acid] |
| 6.74 | 4.55 | N#Cc1cc(Cc2c(Cl)cc(Cl)cc2Cl)nc(C(=O)CCC(=O)O)c1O [Example 144, 4-[4-Cyano-3-hydroxy-6-(2,4,6-trichloro-benzyl)-pyridin-2-yl]-4-oxo-butyric acid] |
| 6.80 | < 4.40 | Cc1cc(C)c(Cc2cc(C#N)c(O)c(C(=O)CCC(=O)O)n2)c(C)c1 [Example 124, 4-[4-Cyano-3-hydroxy-6-(2,4,6-trimethyl-benzyl)-pyridin-2-yl]-4-oxo-butyric acid] |
| 6.80 | < 4.40 | COc1cc(Cl)c(Cc2cc(C#N)c(O)c(C(=O)CCC(=O)O)n2)c(Cl)c1 [Example 147, 4-[4-Cyano-6-(2,6-dichloro-4-methoxy-benzyl)-3-hydroxy-pyridin-2-yl]-4-oxo-butyric acid] |
| 6.85 | 4.41 | N#Cc1cc(Cc2ccccc2Cc2ccccc2)nc(C(=O)CCC(=O)O)c1O [Example 146, 4-[6-(2-Benzyl-benzyl)-4-cyano-3-hydroxy-pyridin-2-yl]-4-oxo-butyric acid] |
| 6.92 | 5.52 | Cc1cccc(Cl)c1Cc1cc(C#N)c(O)c(C(=O)CCC(=O)O)n1 [Example 123, 4-[6-(2-Chloro-6-methyl-benzyl)-4-cyano-3-hydroxy-pyridin-2-yl]-4-oxo-butyric acid] |
| 7.10 | < 4.40 | N#Cc1cc(Cc2c(Cl)cccc2Cl)cc(C(=O)CCC(=O)O)c1O [Example 121, 4-[3-Cyano-5-(2,6-dichloro-benzyl)-2-hydroxy-phenyl]-4-oxo-butyric acid] |
| 7.15 | 5.54 | N#Cc1cc(Cc2c(Cl)cc(F)cc2Cl)nc(C(=O)CCC(=O)O)c1O [Example 126, 4-[4-Cyano-6-(2,6-dichloro-4-fluoro-benzyl)-3-hydroxy-pyridin-2-yl]-4-oxo-butyric acid] |
| 7.15 | 5.43 | N#Cc1cc(Cc2c(Cl)ccc(F)c2Cl)nc(C(=O)CCC(=O)O)c1O [Example 149, 4-[4-Cyano-6-(2,6-dichloro-3-fluoro-benzyl)-3-hydroxy-pyridin-2-yl]-4-oxo-butyric acid] |
